Values of other authors as cited in patent publication US20100239665A1 (priority 2007, published 2010).

For COCCOC(=O)C1=C(C)NC(C)=C(C(=O)OC(C)C)C1c1cccc([N+](=O)[O-])c1 (stereo not shown) [Nimodipine], the solubility in water is listed as “practically insoluble in water”.
